Data taken from ChEMBL document CHEMBL1156144, “Biaryl ethers as novel non-nucleoside reverse transcriptase inhibitors with improved potency against key mutant viruses” (J Med Chem, 2009).

How the values were obtained:
[1] = test system: Human immunodeficiency virus; assay: Antiviral activity against HIV with reverse transcriptase L100I/K103N double mutant assessed as inhibition of viral replication; assay type: functional, organism-based; settings: Human immunodeficiency virus 1
[2] = test system: Human immunodeficiency virus; assay: Antiviral activity against HIV with reverse transcriptase K101E/Y181C/G190A mutant assessed as inhibition of viral replication relative to wild type; assay type: functional
[3] = test system: Human immunodeficiency virus; assay: Antiviral activity against HIV with reverse transcriptase K103N/Y181C double mutant assessed as inhibition of viral replication relative to wild type; assay type: functional
[4] = test system: Human immunodeficiency virus; assay: Antiviral activity against HIV with reverse transcriptase L100I mutant assessed as inhibition of viral replication; assay type: functional, organism-based; settings: Human immunodeficiency virus 1
[5] = test system: Human immunodeficiency virus; assay: Antiviral activity against HIV with reverse transcriptase K103N/P225H double mutant assessed as inhibition of viral replication relative to wild type; assay type: functional
[6] = test system: Human immunodeficiency virus; assay: Antiviral activity against HIV with reverse transcriptase K103N/G190A double mutant assessed as inhibition of viral replication relative to wild type; assay type: functional
[7] = test system: Human immunodeficiency virus; assay: Antiviral activity against HIV with reverse transcriptase G190A mutant assessed as inhibition of viral replication; assay type: functional, organism-based; settings: Human immunodeficiency virus 1
[8] = test system: Human immunodeficiency virus; assay: Antiviral activity against HIV with reverse transcriptase L100I/K103N double mutant assessed as inhibition of viral replication relative to wild type; assay type: functional
[9] = test system: Human immunodeficiency virus; assay: Antiviral activity against HIV with reverse transcriptase G190A mutant assessed as inhibition of viral replication relative to wild type; assay type: functional
[10] = test system: Human immunodeficiency virus; assay: Antiviral activity against HIV with reverse transcriptase K103N/Y181C/G190A mutant assessed as inhibition of viral replication relative to wild type; assay type: functional
[11] = test system: Human immunodeficiency virus; assay: Antiviral activity against HIV with reverse transcriptase K101E/G190A double mutant assessed as inhibition of viral replication relative to wild type; assay type: functional
[12] = test system: Human immunodeficiency virus; assay: Antiviral activity against HIV with reverse transcriptase K101E/G190A double mutant assessed as inhibition of viral replication; assay type: functional, organism-based; settings: Human immunodeficiency virus 1
[13] = test system: Human immunodeficiency virus; assay: Antiviral activity against HIV with reverse transcriptase Y181C mutant assessed as inhibition of viral replication; assay type: functional, organism-based; settings: Human immunodeficiency virus 1
[14] = test system: Human immunodeficiency virus; assay: Antiviral activity against HIV with reverse transcriptase L100I mutant assessed as inhibition of viral replication relative to wild type; assay type: functional
[15] = test system: Human immunodeficiency virus; assay: Antiviral activity against HIV with reverse transcriptase G190S mutant assessed as inhibition of viral replication; assay type: functional, organism-based; settings: Human immunodeficiency virus 1
[16] = test system: Human immunodeficiency virus; assay: Antiviral activity against HIV with reverse transcriptase K103N mutant assessed as inhibition of viral replication; assay type: functional, organism-based; settings: Human immunodeficiency virus 1
[17] = test system: Human immunodeficiency virus; assay: Antiviral activity against HIV with reverse transcriptase Y181C/G190A double mutant assessed as inhibition of viral replication; assay type: functional, organism-based; settings: Human immunodeficiency virus 1
[18] = test system: Human immunodeficiency virus; assay: Antiviral activity against HIV with reverse transcriptase K103N/Y181C double mutant assessed as inhibition of viral replication; assay type: functional, organism-based; settings: Human immunodeficiency virus 1
[19] = test system: Human immunodeficiency virus; assay: Antiviral activity against HIV with reverse transcriptase K103N mutant assessed as inhibition of viral replication relative to wild type; assay type: functional
[20] = test system: Human immunodeficiency virus; assay: Antiviral activity against HIV with reverse transcriptase Y188L mutant assessed as inhibition of viral replication; assay type: functional, organism-based; settings: Human immunodeficiency virus 1
[21] = test system: Human immunodeficiency virus; assay: Antiviral activity against HIV with reverse transcriptase CNDO mutant assessed as inhibition of viral replication relative to wild type; assay type: functional
[22] = test system: Human immunodeficiency virus; assay: Antiviral activity against HIV with reverse transcriptase Y188L mutant assessed as inhibition of viral replication relative to wild type; assay type: functional
[23] = test system: Human immunodeficiency virus; assay: Antiviral activity against HIV with reverse transcriptase K103N/P225H double mutant assessed as inhibition of viral replication; assay type: functional, organism-based; settings: Human immunodeficiency virus 1
[24] = test system: Human immunodeficiency virus; assay: Antiviral activity against HIV with reverse transcriptase Y181C/G190A double mutant assessed as inhibition of viral replication relative to wild type; assay type: functional
[25] = test system: Human immunodeficiency virus; assay: Antiviral activity against HIV with reverse transcriptase MDRC4 mutant assessed as inhibition of viral replication; assay type: functional, organism-based; settings: Human immunodeficiency virus 1
[26] = test system: Human immunodeficiency virus; assay: Antiviral activity against HIV with reverse transcriptase K103N/G190A double mutant assessed as inhibition of viral replication; assay type: functional, organism-based; settings: Human immunodeficiency virus 1
[27] = test system: Human immunodeficiency virus; assay: Antiviral activity against HIV with reverse transcriptase V106A/G190A/F227L mutant assessed as inhibition of viral replication; assay type: functional, organism-based; settings: Human immunodeficiency virus 1
[28] = test system: Human immunodeficiency virus; assay: Antiviral activity against HIV with reverse transcriptase K103N/Y181C/G190A mutant assessed as inhibition of viral replication; assay type: functional, organism-based; settings: Human immunodeficiency virus 1
[29] = test system: Human immunodeficiency virus; assay: Antiviral activity against HIV with reverse transcriptase K101E/Y181C/G190A mutant assessed as inhibition of viral replication; assay type: functional, organism-based; settings: Human immunodeficiency virus 1
[30] = test system: Human immunodeficiency virus; assay: Antiviral activity against HIV with reverse transcriptase G190S mutant assessed as inhibition of viral replication relative to wild type; assay type: functional
[31] = test system: Human immunodeficiency virus; assay: Antiviral activity against HIV with reverse transcriptase Y181C mutant assessed as inhibition of viral replication relative to wild type; assay type: functional
[32] = test system: Human immunodeficiency virus; assay: Antiviral activity against HIV with reverse transcriptase MDRC4 mutant assessed as inhibition of viral replication relative to wild type; assay type: functional
[33] = test system: Human immunodeficiency virus; assay: Antiviral activity against HIV with reverse transcriptase CNDO mutant assessed as inhibition of viral replication; assay type: functional, organism-based; settings: Human immunodeficiency virus 1
[34] = test system: Human immunodeficiency virus; assay: Antiviral activity against HIV with reverse transcriptase V106A/G190A/F227L mutant assessed as inhibition of viral replication relative to wild type; assay type: functional

O=C1Nc2ccc(Cl)cc2[C@@](C#CC2CC2)(C(F)(F)F)O1 [EFAVIRENZ]
IC50 [1]: > 500 nM
fold change (FC) [2]: 213
fold change (FC) [3]: 55.6
IC50 [4]: 21 nM
fold change (FC) [5]: 306.2
fold change (FC) [6]: 281.4
IC50 [7]: 3.6 nM
fold change (FC) [8]: >454
fold change (FC) [9]: 7.2
fold change (FC) [10]: >454
fold change (FC) [11]: 34.8
IC50 [12]: 17.4 nM
IC50 [13]: 1.1 nM
fold change (FC) [14]: 42
IC50 [15]: 114 nM
IC50 [16]: 16.8 nM
IC50 [17]: 7.7 nM
IC50 [18]: 27.8 nM
fold change (FC) [19]: 33.6
IC50 [20]: 124 nM
fold change (FC) [21]: 1
fold change (FC) [22]: 248.6
IC50 [23]: 153 nM
fold change (FC) [24]: 15.4
IC50 [25]: 8 nM
IC50 [26]: 141 nM
IC50 [27]: > 500 nM
IC50 [28]: > 500 nM
IC50 [29]: 106 nM
fold change (FC) [30]: 229
fold change (FC) [31]: 2.2
fold change (FC) [32]: 16
IC50 [33]: 0.5 nM
fold change (FC) [34]: >454
